Assay results as given in the supplement of paper PMC13380429.

Tests used:
Details in all cases: 72 h
HepG2 [1] = test: relative viability EC50 (midpoint between 100% and the lowest measured viability); higher = less toxic
Caco-2 [2] = test: as above
Vero E6 [3] = test: as above
U2OS [4] = test: as above
Calu-3 [5] = test: as above
HepG2 [6] = test: drug sensitivity score (DSS) for viability; higher = more toxic; extreme values may be limits of the assay
Caco-2 [7] = test: as above
Vero E6 [8] = test: as above
U2OS [9] = test: as above
Calu-3 [10] = test: as above
HepG2 [11] = test: cell viability relative to DMSO; higher = less toxic
Caco-2 [12] = test: as above
Vero E6 [13] = test: as above
U2OS [14] = test: as above
Calu-3 [15] = test: as above

| SMILES | relative viability EC50 (HepG2 [1]) [µM] | relative viability EC50 (Caco-2 [2]) [µM] | relative viability EC50 (Vero E6 [3]) [µM] | relative viability EC50 (U2OS [4]) [µM] | relative viability EC50 (Calu-3 [5]) [µM] | drug sensitivity score (HepG2 [6]) | drug sensitivity score (Caco-2 [7]) | drug sensitivity score (Vero E6 [8]) | drug sensitivity score (U2OS [9]) | drug sensitivity score (Calu-3 [10]) | cell viability (HepG2 [11]; 1 nM) [%] | cell viability (HepG2 [11]; 10 nM) [%] | cell viability (HepG2 [11]; 100 nM) [%] | cell viability (HepG2 [11]; 1000 nM) [%] | cell viability (HepG2 [11]; 10000 nM) [%] | cell viability (Caco-2 [12]; 1 nM) [%] | cell viability (Caco-2 [12]; 10 nM) [%] | cell viability (Caco-2 [12]; 100 nM) [%] | cell viability (Caco-2 [12]; 1000 nM) [%] | cell viability (Caco-2 [12]; 10000 nM) [%] | cell viability (Vero E6 [13]; 1 nM) [%] | cell viability (Vero E6 [13]; 10 nM) [%] | cell viability (Vero E6 [13]; 100 nM) [%] | cell viability (Vero E6 [13]; 1000 nM) [%] | cell viability (Vero E6 [13]; 10000 nM) [%] | cell viability (U2OS [14]; 1 nM) [%] | cell viability (U2OS [14]; 10 nM) [%] | cell viability (U2OS [14]; 100 nM) [%] | cell viability (U2OS [14]; 1000 nM) [%] | cell viability (U2OS [14]; 10000 nM) [%] | cell viability (Calu-3 [15]; 1 nM) [%] | cell viability (Calu-3 [15]; 10 nM) [%] | cell viability (Calu-3 [15]; 100 nM) [%] | cell viability (Calu-3 [15]; 1000 nM) [%] | cell viability (Calu-3 [15]; 10000 nM) [%] |
| --- | --- | --- | --- | --- | --- | --- | --- | --- | --- | --- | --- | --- | --- | --- | --- | --- | --- | --- | --- | --- | --- | --- | --- | --- | --- | --- | --- | --- | --- | --- | --- | --- | --- | --- | --- |
| CCN(C(C)=O)c1cccc(-c2ccnc3c(C#N)cnn23)c1 [ZALEPLON] | > 10 | > 10 | > 10 | > 10 | > 10 | 0 | 0 | 0 | 0 | 0 | 90.5 | 95.6 | 91 | 105 | 89.3 | 96.6 | 102 | 100 | 104 | 96.4 | 97.5 | 99.2 | 99.3 | 101 | 95 | 105 | 104 | 102 | 103 | 96 | 93.9 | 96.7 | 96.7 | 86.1 | 90.7 |
| CC(=O)N1CCC(NC(=O)c2ccc(F)cc2)CC1 [FK-962] | > 10 | > 10 | > 10 | > 10 | > 10 | 0 | 0 | 0 | 0 | 0 | 107 | 104 | 134 | 92.6 | 108 | 101 | 97.4 | 104 | 108 | 114 | 98.1 | 87.7 | 98.3 | 88.5 | 94.3 | 97.8 | 97.9 | 98.6 | 103 | 94.4 | 108 | 98.7 | 101 | 99.5 | 95.8 |
| Nc1cc(C(Cl)=C(Cl)Cl)c(S(N)(=O)=O)cc1S(N)(=O)=O [clorsulon] | > 10 | > 10 | > 10 | > 10 | > 10 | 0 | 0 | 0 | 0 | 0 | 100 | 106 | 94.2 | 101 | 100 | 94.8 | 90.5 | 98.5 | 93.8 | 102 | 105 | 106 | 96.8 | 102 | 100 | 96.9 | 97 | 100 | 97 | 102 | 90.1 | 97.6 | 104 | 97.2 | 101 |
| CC(=O)OCC1=C(C(=O)O)N2C(=O)[C@@H](NC(=O)Cc3cccs3)[C@H]2SC1 [cephalothin] | > 10 | > 10 | > 10 | > 10 | > 10 | 0.8 | 0 | 0 | 0 | 0 | 87.9 | 102 | 86 | 86.8 | 86.3 | 110 | 103 | 102 | 98.5 | 119 | 100 | 97.6 | 93.6 | 88.7 | 110 | 104 | 98.4 | 94.1 | 99.4 | 104 | 117 | 94.2 | 104 | 103 | 106 |
| Nc1ccccc1NC(=O)c1ccc(CNc2nccc(-c3cccnc3)n2)cc1 [mocetinostat] | 0.756 | 1.12 | 0.567 | 1.26 | 0.405 | 12.5 | 9.2 | 13.9 | 10.4 | 13 | 102 | 100 | 88.9 | 44.2 | 1.1 | 95.6 | 100 | 102 | 64.4 | 17.7 | 95.4 | 94.7 | 78 | 43.4 | -0.1 | 98.4 | 97.2 | 100 | 64.2 | 0.3 | 102 | 89.6 | 86.8 | 40 | 17.7 |
| c1ccc([C@@H]2C[C@H]2NC2CCNCC2)cc1 [GSK-LSD-1] | > 10 | > 10 | > 10 | > 10 | > 10 | 0 | 0 | 0 | 0 | 0 | 92.6 | 96.4 | 93 | 98.8 | 97.2 | 98.5 | 95.2 | 96.5 | 87.1 | 92.2 | 97.1 | 99.4 | 96.4 | 101 | 95.6 | 102 | 98.1 | 104 | 94.6 | 104 | 102 | 88 | 96.8 | 95.8 | 93.4 |
| N#Cc1ncccn1 [2-cyanopyrimidine] | > 10 | > 10 | > 10 | > 10 | > 10 | 0 | 0 | 0 | 0 | 0 | 102 | 100 | 93.7 | 93.6 | 111 | 98.5 | 93.7 | 101 | 99.3 | 102 | 93.8 | 104 | 97 | 106 | 94.6 | 100 | 104 | 96.7 | 99.6 | 97.9 | 102 | 99.3 | 101 | 91.6 | 96.9 |
